Source: US6992083B2, “Benzoxazol derivatives” (Hoffman-La Roche Inc., priority 2003, dated 2006)

How the values were obtained:
hA1 = target: T1, hA1 (Homo sapiens, UniProt P30542); assay: selectivity to the A1 receptor; assay type: binding; conditions: selectivity of A2a affinity versus hA1
T1 sequence (P30542 1-326): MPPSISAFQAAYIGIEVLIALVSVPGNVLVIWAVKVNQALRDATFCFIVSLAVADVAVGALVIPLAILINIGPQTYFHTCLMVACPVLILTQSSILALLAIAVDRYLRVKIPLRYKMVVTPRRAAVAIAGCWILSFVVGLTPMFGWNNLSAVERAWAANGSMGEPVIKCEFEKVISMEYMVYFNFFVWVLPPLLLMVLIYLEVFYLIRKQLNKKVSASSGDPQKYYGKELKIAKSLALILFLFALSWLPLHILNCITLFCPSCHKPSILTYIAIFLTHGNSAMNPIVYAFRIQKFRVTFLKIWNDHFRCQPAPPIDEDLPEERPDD

[1] = target: T2, human adenosine A2A receptor (Homo sapiens, UniProt P29274); assay: [3H]-SCH-58261 binding assay, human adenosine A2A receptor; conditions: recombinant receptor in CHO cell membranes, [3H]-SCH-58261 1 nM, Ki by Cheng-Prussoff; read-out: hA2a pKi (converted)
T2 construct: expressed in transfected cells; host or cells: CHO cells, Semliki Forest virus expression system; washed membrane preparation
T2 sequence (P29274 whole entry): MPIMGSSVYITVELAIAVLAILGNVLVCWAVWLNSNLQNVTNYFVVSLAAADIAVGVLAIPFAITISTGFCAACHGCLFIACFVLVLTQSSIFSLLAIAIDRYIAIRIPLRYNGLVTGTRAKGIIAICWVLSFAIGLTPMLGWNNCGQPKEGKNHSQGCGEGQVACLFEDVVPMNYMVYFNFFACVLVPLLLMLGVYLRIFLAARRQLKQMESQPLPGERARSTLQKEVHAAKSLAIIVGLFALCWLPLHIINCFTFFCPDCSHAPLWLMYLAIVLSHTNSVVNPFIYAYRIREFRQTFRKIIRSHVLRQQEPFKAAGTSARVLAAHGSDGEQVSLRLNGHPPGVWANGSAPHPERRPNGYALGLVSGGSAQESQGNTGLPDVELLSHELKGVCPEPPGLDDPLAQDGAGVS
Protocol: Human Adenosine A2A Receptor
The human adenosine A2A receptor was recombinantly expressed in Chinese hamster ovary (CHO) cells using the semliki forest virus expression system. Cells were harvested, washed twice by centrifugation, homogenised and again washed by centrifugation. The final washed membrane pellet was suspended in a Tris (50 mM) buffer containing 120 mM NaCl, 5 mM KCl, 2 mM CaCl2 and 10 mM MgCl2 (pH 7.4) (buffer A). The [^3H]-SCH-58261 (Dionisotti et al., 1997, Br J Pharmacol 121, 353; 1 nM) binding assay was carried out in 96-well plates in the presence of 2.5 μg of membrane protein, 0.5 mg of Ysi-poly-1-lysine SPA beads and 0.1 U adenosine deaminase in a final volume of 200 μl of buffer A. Non-specific binding was defined using xanthine amine congener (XAC; 2 μM). Compounds were tested at 10 concentrations from 10 μM–0.3 nM. All assays were conducted in duplicate and repeated at least two times. Assay plates were incubated for 1 hour at room temperature before centrifugation and then bound ligand determined using a Packard Topcount scintillation counter. IC50 values were calculated using a non-linear curve fitting program and Ki values calculated using the Cheng-Prussoff equation.

COc1ccc(-c2ccccc2)c2oc(NC(=O)c3ccc(F)cc3)nc12 [Example 1, 4-Fluoro-N-(4-methoxy-7-phenyl-benzooxazol-2-yl)-benzamide]
selectivity to hA1 (hA1): 26
Ki [1]: 12 nM

COCCN(C)Cc1ccc(C(=O)Nc2nc3c(OC)ccc(-c4ccccc4)c3o2)cc1 [Example 2, 4-{[(2-Methoxy-ethyl)-methyl-amino]-methyl}-N-(4-methoxy-7-phenyl-benzooxazol-2-yl)-benzamide]
selectivity to hA1 (hA1): 137
Ki [1]: 22.4 nM

COc1ccc(C2CCOCC2)c2oc(NC(=O)c3ccc(F)cc3)nc12 [Example 5, 4-Fluoro-N-[4-methoxy-7-(tetrahydro-pyran-4-yl)-benzooxazol-2-yl]-benzamide]
selectivity to hA1 (hA1): 140
Ki [1]: 21.9 nM

COc1ccc(C2CCOCC2)c2oc(NC(=O)c3ccnc(N4CCOCC4)c3)nc12 [Example 9, N-[4-Methoxy-7-(tetrahydro-pyran-4-yl)-benzooxazol-2-yl]-2-morpholin-4-yl-isonicotinamide]
selectivity to hA1 (hA1): 351
Ki [1]: 21.9 nM

COc1ccc(-c2ccc(F)cc2)c2oc(NC(=O)c3ccnc(CCl)c3)nc12 [Example 13, 2-Chloromethyl-N-[7-(4-fluoro-phenyl)-4-methoxy-benzooxazol-2-yl]-isonicotinamide]
selectivity to hA1 (hA1): 227
Ki [1]: 22.9 nM

COc1ccc(-c2ccc(F)cc2)c2oc(NC(=O)c3ccnc(C)c3)nc12 [Example 14, N-[7-(4-Fluoro-phenyl)-4-methoxy-benzooxazol-2-yl]-2-methyl-isonicotinamide]
selectivity to hA1 (hA1): 134
Ki [1]: 15.8 nM

COc1ccc(-c2ccc(F)cc2)c2oc(NC(=O)c3ccc(C)nc3)nc12 [Example 17, N-[7-(4-Fluoro-phenyl)-4-methoxy-benzooxazol-2-yl]-6-methyl-nicotinamide]
selectivity to hA1 (hA1): 242
Ki [1]: 12.9 nM

COc1ccc(-c2ccc(F)cc2)c2oc(NC(=O)c3ccc(F)cc3)nc12 [Example 18, 4-Fluoro-N-[7-(4-fluoro-phenyl)-4-methoxy-benzooxazol-2-yl]-benzamide]
selectivity to hA1 (hA1): 120
Ki [1]: 6.46 nM

COc1ccc(-c2ccc(F)cc2)c2oc(NC(=O)c3ccnc(N4CCOCC4)c3)nc12 [Example 20, N-[7-(4-Fluoro-phenyl)-4-methoxy-benzooxazol-2-yl]-2-morpholin-4-yl-isonicotinamide]
selectivity to hA1 (hA1): 650
Ki [1]: 8.51 nM

COCc1cc(C(=O)Nc2nc3c(OC)ccc(-c4ccc(F)cc4)c3o2)ccn1 [Example 21, N-[7-(4-Fluoro-phenyl)-4-methoxy-benzooxazol-2-yl]-2-methoxymethyl-isonicotinamide]
selectivity to hA1 (hA1): 96
Ki [1]: 30.2 nM
